The target in data set [1] is SARS-CoV-2 3CLpro (Severe acute respiratory syndrome coronavirus 2, UniProt P0DTD1). As to the kind of experiment: biochemical. It counts as biochemical. The settings on record: for inhibition activity against SARS-CoV-2 3CLpro in vitro (in words): FRET assay, 30 tested compounds.
For data set [2], the system named is SARS-CoV-2. As to the kind of experiment: microbe, parasite or virus in culture. It is filed as cell-based. To be noted: Severe acute respiratory syndrome coronavirus 2, Vero C1008, read-out: IC50 of inhibition of cell infection.
The test system of data set [3] is VeroE6 cells.
Data set [4] deals with MERS-CoV 3CLpro (Middle East respiratory syndrome-related coronavirus, UniProt K9N7C7). As to the kind of experiment: biochemical.
Data set [5] deals with SARS-CoV-2 protease (Severe acute respiratory syndrome coronavirus 2, UniProt P0DTD1). To be noted: Fu et al., Nature Comm. 2020; cited from earlier work.
For data set [6], the system named is SARS-CoV-2 virus. To be noted: Vero E6 cells; Choy K. et al, Antivir. Res. 2020; read-out: IC50 antiviral effect; cited from earlier work.

These results are taken from patent US20230218644A1, “COMPOUNDS FOR USE IN THE TREATMENT OF VIRAL INFECTIONS BY RESPIRATORY SYNDROME-RELATED CORONAVIRUS” (SOM INNOVATION BIOTECH, S.A., priority 2020, published 2023).

Chain of MERS-CoV 3CLpro (K9N7C7 3248-3553 limits assumed): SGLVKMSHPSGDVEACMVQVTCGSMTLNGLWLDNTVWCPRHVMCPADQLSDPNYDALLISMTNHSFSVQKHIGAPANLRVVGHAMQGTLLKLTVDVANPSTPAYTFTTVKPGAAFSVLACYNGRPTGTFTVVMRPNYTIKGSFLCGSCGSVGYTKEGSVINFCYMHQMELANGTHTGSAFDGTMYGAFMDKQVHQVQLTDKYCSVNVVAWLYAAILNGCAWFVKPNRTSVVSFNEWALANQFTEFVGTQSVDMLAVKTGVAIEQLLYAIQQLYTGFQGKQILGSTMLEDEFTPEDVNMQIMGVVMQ

Take `CCOC(=O)/C=C/[C@H](C[C@@H]1CCNC1=O)NC(=O)[C@@H](CC(=O)[C@@H](NC(=O)c1cc(C)on1)C(C)C)Cc1ccc(F)cc1`: the “inhibition activity against SARS-CoV-2 3CLpro in vitro (in words)” value (shortened to “inhibition activity”) in data set [1] was “not active in vitro”.
For the compound `CCN(CC)CCCC(C)Nc1ccnc2cc(Cl)ccc12` (racemic) [chloroquine, (RS)-N′-(7-chloroquinolin-4-yl)-N,N-diethyl-pentane-1,4-diamine], the IC50 in data set [2] was around 12 µM. Moreover, in data set [3], the “cytotoxicity / cell viability (in words)” value is listed as “significant cytotoxicity”.
On to `O=C(/C=C/c1ccc(O)c(O)c1)OC1CC(OC(=O)/C=C/c2ccc(O)c(O)c2)(C(=O)O)CC(O)C1O` (stereo not drawn) [CYNARIN, 1,3-bis[[(E)-3-(3,4-dihydroxyphenyl)prop-2-enoyl]oxy]-4,5-dihydroxycyclohexane-1-carboxylic acid], for which the IC50 in data set [1] stood at 1.81 µM; in data set [4], 16.7 µM. The “inhibition activity” value in data set [1] is listed as “active in vitro”.
Consider `CN(C)[C@@H]1C(O)=C(C(N)=O)C(=O)[C@@]2(O)C(O)=C3C(=O)c4c(O)c(NC(=O)CN5CCCC5)cc(F)c4C[C@H]3C[C@@H]12` [ERAVACYCLINE diHcl, (4S,4aS,5aR,12aS)-4-(Dimethylamido)-7-fluoro-3,10,12,12a-tetrahydroxy-1,11-dioxo-9-[(1-pyrrolidinylacetyl)amino]-1,4,4a,5,5a,6,11,12a-octahydro-2-tetracenecarboxamide], for which the results for the IC50 in data set [1], in data set [4] and in data set [2] were 1.65 µM, 16.4 µM and 30.6 µM, respectively. For the same compound, in data set [1], the “inhibition activity” value is “active in vitro”. The “cytotoxicity / cell viability (in words)” value in data set [3] is on record as “without affecting cell viability”.
Turning to `COc1cccc(OCCCN)c1-c1cc(Nc2cnc(C#N)cn2)n[nH]1` [PREXASERTIB diHCl, 5-((5-(2-(3-Aminopropoxy)-6-methoxyphenyl)-1H-pyrazol-3-yl)amino)-2-pyrazinecarbonitrile], the IC50 stood at 2 µM in data set [1] and 12.4 µM in data set [4]. In addition, the “inhibition activity” value in data set [1] is reported as “active in vitro”.
In the case of `CC(C)C[C@H](NC(=O)[C@H](CCc1ccccc1)NC(=O)CN1CCOCC1)C(=O)N[C@@H](Cc1ccccc1)C(=O)N[C@@H](CC(C)C)C(=O)[C@@]1(C)CO1` [carfilzomib], the “inhibition of SARS-CoV-2 protease (in words)” value in data set [5] was “failed to inhibit”.
On to `CC[C@H]1CN2CCc3cc(OC)c(OC)cc3[C@@H]2C[C@@H]1C[C@H]1NCCc2cc(OC)c(OC)cc21` [emetine], for which, in data set [6], the IC50 is 0.46 µM.
`COC(=O)C[C@](O)(CCCC(C)(C)O)C(=O)O[C@@H]1C(OC)=C[C@]23CCCN2CCc2cc4c(cc2[C@H]13)OCO4` [homorringtonine, 1-((1S,3aR,14bS)-2-Methoxy-1,5,6,8,9,14b-hexahydro-4H-cyclopenta(a)(1,3)dioxolo(4,5-h)pyrrolo(2,1-b)(3)benzazepin-1-yl) 4-methyl (2R)-2-hydroxy-2-(4-hydroxy-4-methylpentyl)butanedioate]: the half-maximal inhibitory concentration (IC50) in data set [6] is 2.55 µM.
For `CCC(CC)COC(=O)[C@H](C)N[P@](=O)(OC[C@H]1O[C@@](C#N)(c2ccc3c(N)ncnn23)[C@H](O)[C@@H]1O)Oc1ccccc1` [remdesivir, (2S)-2-{(2R,3S,4R,5R)-[5-(4-Aminopyrrolo[2,1-f][1,2,4]triazin-7-yl)-5-cyano-3,4-dihydroxy-tetrahydro-furan-2-ylmethoxy]phenoxy-(S)-phosphorylamino}propionic acid 2-ethyl-butyl ester], in data set [2], the IC50 is around 12 µM.
